Source: patent publication US11760750B1, “Process for preparing levoketoconazole” (Nuray Chemicals Private Limited, priority 2022, dated 2023)

Key:
[1] = Solubility in water; assay type: physicochemical
[2] = Powder flow of crystalline levoketoconazole: bulk density, tapped density, Hausner Ratio, Carr Index (USP <1174>); assay type: physicochemical
Procedure: The Hausner Ratio is a value calculated by dividing the tapped density of the levoketoconazole by the freely settled bulk density of the levoketoconazole. The freely settled bulk density is calculated by pouring a known weight of material into a measuring cylinder and recording the volume. The tapped density is calculated by tapping the cylinder against a surface for a specified numbers of times and recording again the new volume.
The Carr (or Compressibility) Index is frequently used in pharmaceutics as an indication of the compressibility of a powder. The Carr Index may be calculated by dividing the difference of the tapped and bulk densities by the tapped density and then multiplying by 100. In a free-flowing powder, the bulk density and tapped density would be close in value; therefore, the Carr Index would be small. On the other hand, in a poor-flowing powder where there are greater interparticle interactions, the difference between the bulk and tapped density observed would be greater, therefore, the Carr Index would be larger.

solubility in water [1]: poorly soluble in water
Carr Index (Compressibility Index) [2]: below 15
flowability (flow character by Hausner Ratio) [2]: good
bulk density ([2]; 100 g sample, 250 mL graduated cylinder): about 0.576 g/mL
Hausner Ratio ([2]; 500 taps): 1.120
Hausner Ratio ([2]; 1250 taps): 1.18
tapped density ([2]; after 500 taps): about 0.686 g/mL
tapped density ([2]; after 1,250 taps): about 0.681 g/mL
SMILES: CC(=O)N1CCN(c2ccc(OC[C@@H]3CO[C@@](Cn4ccnc4)(c4ccc(Cl)cc4Cl)O3)cc2)CC1 [crystalline levoketoconazole, (2S,4R)-cis-1-acetyl-4-[4-[[2-(2,4-dichlorophenyl)-2-(1H-imidazol-1-ylmethyl)-1,3-dioxolan-4-yl]methoxyl]phenyl] piperazine]
